From patent US20240353393A1, “LABEL FREE DRUG AND TISSUE BIOPSY SCREENING/DIAGNOSTIC IN CANCER” (University of Virginia Patent Foundation, priority 2023, published 2024) come the findings set out here.

Format in all cases: cell-based
One assay concerns AA prostate cancer cells. Kind of assay: FLIRR vs intensity-based redox ratio, CoCl2 pretreatment and glucose stimulation.
In assay [1] the test system is PCa cells. As to the kind of experiment: Trp-NAD(P)H FRET interaction by FLIM-FRET after doxorubicin treatment. The following applies: as early as 15 mins of treatment, real time, before induction of apoptosis. From the text:
Auto-fluorescent biomarker, tryptophan (Trp), has also been linked to cancer investigations. Trp, an essential amino acid, is a precursor of niacin, which in turn is a precursor of NAD (P) H. Increased Trp catabolismand increased indoleamine 2,3-dioxygenase (IDO) activity in the kynurenine pathway are linked to cancer development and progression. Therefore, probing Trp is clinically relevant. In general, Trp fluorescence intensity and lifetime mainly provide information on the protein composition, protein structure of which they are a part of and changes in overall cellular microenvironment. Trp is therefore used as a marker for protein abundance. […] In FLIM-FRET measurements, FRET events are identified if there is reduction in the donor lifetime, because of quenching of its fluorescence in the presence of the acceptor. […] The efficiency of energy transfer or E % is calculated from the following equation E=1-τm/τ0, where τm is the mean lifetime of Trp in cells and τ0=3.1 ns of unquenched Trp lifetime measured from Trp in solution. […]
FLIM instrumentation can include a 3-channel FLIM imaging system of a Zeiss LSM 780 confocal/multiphoton (MP) laser scanning system coupled to the Zeiss inverted epi-fluorescence microscope, which is controlled with the ZEN software (Carl Zeiss, Inc). […]

The test system of assay [2] is PCa cells. Kind of assay: FLIRR (NAD(P)H-a2%/FAD-a1%) by FLIM after doxorubicin treatment. The settings on record: as early as 15 mins of treatment, real time, before induction of apoptosis. The source says: The enzyme-bound fractions of NAD (P) H (a2%) and FAD (a1%) and their lifetimes (tm) are used to quantify these metabolic changes, in particular with our novel NAD (P) H-a2%/FAD-a1% FLIM-based redox ratio. The commonly used intensity-based redox ratio [NAD (P) H/FAD], based predominantly on signals driven by mitochondrial OXPHOS is defined as a reduction of this ratio, due to the conversion of fluorescent NAD (P) H to non-fluorescent NAD+ and conversion of non-fluorescent FADH2 to fluorescent FAD. […]
FLIM instrumentation can include a 3-channel FLIM imaging system of a Zeiss LSM 780 confocal/multiphoton (MP) laser scanning system coupled to the Zeiss inverted epi-fluorescence microscope, which is controlled with the ZEN software (Carl Zeiss, Inc). […] The fluorescence decay per pixel was measured using 3-channel SPC-150 TCSPC board (Becker & Hickl, GmbH) where the SPCM software was used to acquire the FLIM data (v. 8.91). […]
The ratio of the bound NAD (P) H to bound FAD, the Fluorescence Lifetime Imaging Redox Ratio (FLIRR), is an optical biomarker to determine a cell's primary metabolic pathway with higher FLIRR values often consistent with a shift towards oxidative phosphorylation and lower values often associated with a shift towards glycolysis.

Regarding `[Cl-].[Cl-].[Co+2]` [CoCl2], the NADH-a2%/FAD-a1% ratio result in the assay with AA prostate cancer cells is on record as “decrease”. As to `COc1cccc2c1C(=O)c1c(O)c3c(c(O)c1C2=O)C[C@@](O)(C(=O)CO)C[C@@H]3O[C@H]1C[C@H](N)[C@H](O)[C@H](C)O1` [doxorubicin], in the assay on PCa cells [1], the “Trp-NAD(P)H FRET interactions” value is “increase”. Further, the “FLIRR of metabolic co-enzymes NAD(P)H & FAD” value with PCa cells [2] was “increase”.
